Measured values published in patent US20170037028A1 (BAYER PHARMA AKTIENGESELLSCHAFT, priority 2013, published 2017).
Read-outs that look alike come from different tables or passages of the source.

Target: T1, GLUT1 (Homo sapiens, UniProt P11166)
T1 sequence (P11166 1-492): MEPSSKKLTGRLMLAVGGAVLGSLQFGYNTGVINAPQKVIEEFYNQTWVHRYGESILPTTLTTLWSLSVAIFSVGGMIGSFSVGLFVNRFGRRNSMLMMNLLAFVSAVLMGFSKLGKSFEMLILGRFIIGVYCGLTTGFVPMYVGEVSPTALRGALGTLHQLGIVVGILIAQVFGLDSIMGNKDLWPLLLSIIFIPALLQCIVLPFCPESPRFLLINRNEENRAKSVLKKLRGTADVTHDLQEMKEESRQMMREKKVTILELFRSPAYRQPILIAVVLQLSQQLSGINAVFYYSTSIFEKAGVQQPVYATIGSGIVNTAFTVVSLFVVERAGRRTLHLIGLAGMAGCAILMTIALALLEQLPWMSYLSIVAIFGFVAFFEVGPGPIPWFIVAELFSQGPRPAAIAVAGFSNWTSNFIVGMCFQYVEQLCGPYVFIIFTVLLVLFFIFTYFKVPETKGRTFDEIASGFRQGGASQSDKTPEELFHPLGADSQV
Assay: Indirect measurement of GLUT1 activity by quantification of intracellular ATP levels (glucose induced ATP increase)
Type: cell-based
Set-up: endogenous in cells; host or cells: DLD1 or CHO-K1
Conditions: read-out: IC50 regarding glucose induced ATP increase (GLUT1 inhibition)
How it was run: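 Intracellular ATP was measured by CellTiter-Glo luminescence as an indirect readout of transport: glucose-driven for GLUT1, fructose-driven for GLUT2. DLD1 or CHO-K1 cells were used alongside an oxidative phosphorylation inhibitor. Beforehand, cells were held overnight in glucose-free 1% FCS medium to deplete ATP.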

Compound	IC50 [nM]	IC50 (DLD1 cells, 0.1 mM glucose, 1 μM Rotenone, 15 min, CellTiter-Glo ATP readout, IC50 values standardized to cytochalasin B IC50 values) [nM]
Cc1nn(Cc2ccc(CC(=O)NCc3ccccc3)cc2)c(C)c1NC(=O)c1cc(C(F)(F)F)nc2ccc(Br)cc12 [Example 154, N-(1-{4-[2-(benzylamino)-2-oxoethyl]benzyl}-3,5-dimethyl-1H-pyrazol-4-yl)-6-bromo-2-(trifluoromethyl)quinoline-4-carboxamide]	196	
Cc1nn(Cc2ccc(CC(=O)Nc3ccccc3)cc2)c(C)c1NC(=O)c1cc(C(F)(F)F)nc2ccc(Br)cc12 [Example 155, 6-bromo-N-(3,5-dimethyl-1-{4-[2-oxo-2-(phenylamino)ethyl]benzyl}-1H-pyrazol-4-yl)-2-(trifluoromethyl)quinoline-4-carboxamide]	312	
Cc1nn(Cc2ccc(CC(=O)N(C)C)cc2)c(C)c1NC(=O)c1cc(C(F)(F)F)nc2ccc(Br)cc12 [Example 156, 6-bromo-N-(1-{4-[2-(dimethylamino)-2-oxoethyl]benzyl}-3,5-dimethyl-1H-pyrazol-4-yl)-2-(trifluoromethyl)quinoline-4-carboxamide]	354	
Cc1nn(Cc2ccc(CC(=O)NCc3cccnc3)cc2)c(C)c1NC(=O)c1cc(C(F)(F)F)nc2ccc(Br)cc12 [Example 157, 6-bromo-N-[3,5-dimethyl-1-(4-{2-oxo-2-[(pyridin-3-ylmethyl)amino]ethyl}benzyl)-1H-pyrazol-4-yl]-2-(trifluoromethyl)quinoline-4-carboxamide]	437	
Cc1nn(Cc2ccc(CC(=O)N3CCOCC3)cc2)c(C)c1NC(=O)c1cc(C(F)(F)F)nc2ccc(Br)cc12 [Example 158, 6-bromo-N-(3,5-dimethyl-1-{4-[2-(morpholin-4-yl)-2-oxoethyl]benzyl}-1H-pyrazol-4-yl)-2-(trifluoromethyl)quinoline-4-carboxamide]	521	
Cc1nn(Cc2ccc(CC(=O)NCCO)cc2)c(C)c1NC(=O)c1cc(C(F)(F)F)nc2ccc(Br)cc12 [Example 159, 6-bromo-N-[1-(4-{2-[(2-hydroxyethyl)amino]-2-oxoethyl}benzyl)-3,5-dimethyl-1H-pyrazol-4-yl]-2-(trifluoromethyl)quinoline-4-carboxamide]	875	
Cc1nn(Cc2ccncc2)c(C)c1NC(=O)c1cc(C(F)(F)F)nc2ccc(Br)cc12 [Example 160, 6-bromo-N-[3,5-dimethyl-1-(pyridin-4-ylmethyl)-1H-pyrazol-4-yl]-2-(trifluoromethyl)quinoline-4-carboxamide]	14.3	
Cc1c(NC(=O)c2cc(C(F)(F)F)nc3ccc(Br)cc23)c(C(F)(F)F)nn1Cc1ccc(C#N)cc1 [Example 161, 6-bromo-N-[1-(4-cyanobenzyl)-5-methyl-3-(trifluoromethyl)-1H-pyrazol-4-yl]-2-(trifluoromethyl)quinoline-4-carboxamide]	15.1	
Cc1nn(Cc2ccc(F)c(F)c2)c(C)c1NC(=O)c1cc(C2CC2)nc2ccc(F)cc12 [Example 162, 2-cyclopropyl-N-[1-(3,4-difluorobenzyl)-3,5-dimethyl-1H-pyrazol-4-yl]-6-fluoroquinoline-4-carboxamide]	24.8	
Cc1nn(Cc2ccc(F)cc2)c(C)c1NC(=O)c1cc(N(C)C)nc2ccccc12 [Example 163, 2-(dimethylamino)-N-[1-(4-fluorobenzyl)-3,5-dimethyl-1H-pyrazol-4-yl]quinoline-4-carboxamide]	25	
Cc1nn(Cc2ccc(O)cc2)c(C)c1NC(=O)c1cc(C(F)(F)F)nc2ccc(Br)cc12 [Example 164, 6-bromo-N-[1-(4-hydroxybenzyl)-3,5-dimethyl-1H-pyrazol-4-yl]-2-(trifluoromethyl)quinoline-4-carboxamide]	27.1	
Cc1nn(Cc2ccc(F)c(F)c2)c(C)c1NC(=O)c1cc(C(F)(F)F)nc2ccc(Cl)cc12 [Example 165, 6-chloro-N-[1-(3,4-difluorobenzyl)-3,5-dimethyl-1H-pyrazol-4-yl]-2-(trifluoromethyl)quinoline-4-carboxamide]	30.4	
Cc1nn(Cc2ccc(F)cc2)c(C)c1NC(=O)c1cc(C(F)(F)F)nc2ccc(-c3ccccc3)cc12 [Example 166, N-[1-(4-fluorobenzyl)-3,5-dimethyl-1H-pyrazol-4-yl]-6-phenyl-2-(trifluoromethyl)quinoline-4-carboxamide]	41.1	
Cc1c(NC(=O)c2cc(C(F)(F)F)nc3c(Cl)cc(Cl)cc23)c(C(F)(F)F)nn1Cc1ccc(C#N)cc1 [Example 167, 6,8-dichloro-N-[1-(4-cyanobenzyl)-5-methyl-3-(trifluoromethyl)-1H-pyrazol-4-yl]-2-(trifluoromethyl)quinoline-4-carboxamide]	46.2	
Cc1nn(Cc2ccc(F)c(F)c2)c(C)c1NC(=O)c1cc(C(F)(F)F)nc2cc(F)ccc12 [Example 168, N-[1-(3,4-difluorobenzyl)-3,5-dimethyl-1H-pyrazol-4-yl]-7-fluoro-2-(trifluoromethyl)quinoline-4-carboxamide]	47.8	
Cc1nn(Cc2ccc(C#N)cc2)c(C)c1NC(=O)c1cc(C(F)(F)F)nc2cc(F)c(F)cc12 [Example 169, N-[1-(4-cyanobenzyl)-3,5-dimethyl-1H-pyrazol-4-yl]-6,7-difluoro-2-(trifluoromethyl)quinoline-4-carboxamide]	50.5	
Cc1nn(CC2CCCCC2)c(C)c1NC(=O)c1cc(C(F)(F)F)nc2ccc(Br)cc12 [Example 170, 6-bromo-N-[1-(cyclohexylmethyl)-3,5-dimethyl-1H-pyrazol-4-yl]-2-(trifluoromethyl)quinoline-4-carboxamide]	54.4	
Cc1nn(Cc2cccnc2)c(C)c1NC(=O)c1cc(C(F)(F)F)nc2ccc(Br)cc12 [Example 171, 6-bromo-N-[3,5-dimethyl-1-(pyridin-3-ylmethyl)-1H-pyrazol-4-yl]-2-(trifluoromethyl)quinoline-4-carboxamide]	57.1	
CNC(=O)c1cc(C(=O)Nc2c(C)nn(Cc3ccc(F)cc3)c2C)c2ccccc2n1 [Example 172, N^4-[1-(4-fluorobenzyl)-3,5-dimethyl-1H-pyrazol-4-yl]-N^2-methylquinoline-2,4-dicarboxamide]	59.1	
Cc1nn(Cc2ccc(F)c(F)c2)c(C)c1NC(=O)c1cc(C(F)(F)F)nc2cccc(F)c12 [Example 173, N-[1-(3,4-difluorobenzyl)-3,5-dimethyl-1H-pyrazol-4-yl]-5-fluoro-2-(trifluoromethyl)quinoline-4-carboxamide]	65.2	
Cc1nn(Cc2ccc(F)c(F)c2)c(C)c1NC(=O)c1cc(C(F)(F)F)nc2ccc(F)cc12 [Example 174, N-[1-(3,4-difluorobenzyl)-3,5-dimethyl-1H-pyrazol-4-yl]-6-fluoro-2-(trifluoromethyl)quinoline-4-carboxamide]	69.6	
Cc1nn(Cc2ccccc2C#N)c(C)c1NC(=O)c1cc(C(F)(F)F)nc2cc(F)c(F)cc12 [Example 175, N-[1-(2-cyanobenzyl)-3,5-dimethyl-1H-pyrazol-4-yl]-6,7-difluoro-2-(trifluoromethyl)quinoline-4-carboxamide]	70.7	
CCN(C(=O)c1cc(C(F)(F)F)nc2ccc(Br)cc12)c1c(C)nn(Cc2ccc(F)cc2)c1C [Example 176, 6-bromo-N-ethyl-N-[1-(4-fluorobenzyl)-3,5-dimethyl-1H-pyrazol-4-yl]-2-(trifluoromethyl)quinoline-4-carboxamide]	72.2	
Cc1nn(Cc2ccc(F)c(F)c2)c(C)c1NC(=O)c1cc(C(F)(F)F)nc2cc(F)c(F)cc12 [Example 177, N-[1-(3,4-difluorobenzyl)-3,5-dimethyl-1H-pyrazol-4-yl]-6,7-difluoro-2-(trifluoromethyl)quinoline-4-carboxamide]	73.9	
CNC(=O)c1cc(C(=O)Nc2c(C(F)(F)F)nn(Cc3ccc(F)cc3)c2C)c2ccccc2n1 [Example 178, N^4-[1-(4-fluorobenzyl)-5-methyl-3-(trifluoromethyl)-1H-pyrazol-4-yl]-N2-methylquinoline-2,4-dicarboxamide]	78.5	
Cc1c(NC(=O)c2cc(C(F)(F)F)nc3ccc(Br)cc23)c(C(F)(F)F)nn1Cc1ccc(F)cc1F [Example 179, 6-bromo-N-[1-(2,4-difluorobenzyl)-5-methyl-3-(trifluoromethyl)-1H-pyrazol-4-yl]-2-(trifluoromethyl)quinoline-4-carboxamide]	78.5	
Cc1nn(Cc2ccc(Cl)s2)c(C)c1NC(=O)c1cc(C(F)(F)F)nc2ccc(Br)cc12 [Example 180, 6-bromo-N-{1-[(5-chlorothiophen-2-yl)methyl]-3,5-dimethyl-1H-pyrazol-4-yl}-2-(trifluoromethyl)quinoline-4-carboxamide]	93.7	
Cc1nn(Cc2ccc(F)cc2)c(C)c1NC(=O)c1cc(C(F)(F)F)nc2ccccc12 [Example 181, N-[1-(4-fluorobenzyl)-3,5-dimethyl-1H-pyrazol-4-yl]-2-(trifluoromethyl)quinoline-4-carboxamide]		93.8
Cc1c(NC(=O)c2cc(C(F)(F)F)nc3cc(F)c(F)cc23)c(C(F)(F)F)nn1Cc1ccc(C#N)cc1 [Example 182, N-[1-(4-cyanobenzyl)-5-methyl-3-(trifluoromethyl)-1H-pyrazol-4-yl]-6,7-difluoro-2-(trifluoromethyl)quinoline-4-carboxamide]	101	
